Assay [1] concerns the target Histamine H3 receptor (Homo sapiens, UniProt Q9Y5N1). Nature of the assay: Inhibition constant against histamine H3 receptor.
For assay [2], the target named is Histamine H1 receptor (Homo sapiens, UniProt P35367).
Description: Inhibition constant against histamine H1 receptor
Assay [3] deals with T1, Endothelin-1 receptor (Homo sapiens, UniProt P25101).
T1 sequence (P25101 whole entry): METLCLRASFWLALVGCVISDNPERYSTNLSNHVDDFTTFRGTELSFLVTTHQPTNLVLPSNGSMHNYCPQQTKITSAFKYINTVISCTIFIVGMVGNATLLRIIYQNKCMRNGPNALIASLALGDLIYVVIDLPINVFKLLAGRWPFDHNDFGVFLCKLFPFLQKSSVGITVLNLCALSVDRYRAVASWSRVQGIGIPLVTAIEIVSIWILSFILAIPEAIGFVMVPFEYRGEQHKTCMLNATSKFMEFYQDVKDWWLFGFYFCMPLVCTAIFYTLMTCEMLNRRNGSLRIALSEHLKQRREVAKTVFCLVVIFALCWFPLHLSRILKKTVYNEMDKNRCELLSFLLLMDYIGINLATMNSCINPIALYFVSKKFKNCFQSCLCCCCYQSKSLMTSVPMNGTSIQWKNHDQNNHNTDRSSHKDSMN
Briefly: Inhibitory concentration against endothelin receptor type A.

Assay [4] addresses Endothelin receptor type B (Homo sapiens, UniProt P24530).
Description: Inhibitory concentration against endothelin receptor type B
Assay [5] deals with T2, Type-1 angiotensin II receptor (Homo sapiens, UniProt P30556).
T2 sequence (P30556 whole entry): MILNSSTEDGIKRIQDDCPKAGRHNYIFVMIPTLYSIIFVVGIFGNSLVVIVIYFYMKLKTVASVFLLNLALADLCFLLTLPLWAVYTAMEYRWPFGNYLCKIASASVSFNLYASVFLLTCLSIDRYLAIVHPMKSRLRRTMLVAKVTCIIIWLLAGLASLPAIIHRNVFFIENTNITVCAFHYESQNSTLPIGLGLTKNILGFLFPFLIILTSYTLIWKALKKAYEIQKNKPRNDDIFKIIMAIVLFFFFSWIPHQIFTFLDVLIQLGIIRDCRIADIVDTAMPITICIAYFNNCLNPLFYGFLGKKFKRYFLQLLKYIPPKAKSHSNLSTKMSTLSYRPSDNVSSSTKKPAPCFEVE
Description: Inhibitory concentration against angiotensin II receptor, type 1

Assay [6] has as its target T3, Type-2 angiotensin II receptor (Homo sapiens, UniProt P50052).
T3 sequence (P50052 whole entry): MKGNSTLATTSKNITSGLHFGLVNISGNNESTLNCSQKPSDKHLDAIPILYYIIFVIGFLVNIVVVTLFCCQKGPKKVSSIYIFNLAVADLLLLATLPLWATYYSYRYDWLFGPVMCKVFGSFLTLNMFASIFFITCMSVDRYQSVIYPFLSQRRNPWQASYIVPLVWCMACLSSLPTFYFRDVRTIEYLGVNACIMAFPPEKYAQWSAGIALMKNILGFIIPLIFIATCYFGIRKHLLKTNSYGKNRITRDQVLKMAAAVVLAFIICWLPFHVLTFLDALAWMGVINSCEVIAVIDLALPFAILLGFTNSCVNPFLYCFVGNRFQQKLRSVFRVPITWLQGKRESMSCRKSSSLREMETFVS
Description: Inhibitory concentration against angiotensin II receptor, type 2

The target of assay [7] is Angiotensin-converting enzyme (Homo sapiens, UniProt P12821). Briefly: Inhibition constant against angiotensin I converting enzyme.
For assay [8], the target named is Neprilysin (Homo sapiens, UniProt P08473). Nature of the assay: Inhibition constant against neutral endopeptidase.
Assay [9] concerns the target Endothelin-converting enzyme 1 (Homo sapiens, UniProt P42892). Briefly: Inhibition constant against endothelin converting enzyme 1.

Sequence of Angiotensin-converting enzyme (P12821 whole entry): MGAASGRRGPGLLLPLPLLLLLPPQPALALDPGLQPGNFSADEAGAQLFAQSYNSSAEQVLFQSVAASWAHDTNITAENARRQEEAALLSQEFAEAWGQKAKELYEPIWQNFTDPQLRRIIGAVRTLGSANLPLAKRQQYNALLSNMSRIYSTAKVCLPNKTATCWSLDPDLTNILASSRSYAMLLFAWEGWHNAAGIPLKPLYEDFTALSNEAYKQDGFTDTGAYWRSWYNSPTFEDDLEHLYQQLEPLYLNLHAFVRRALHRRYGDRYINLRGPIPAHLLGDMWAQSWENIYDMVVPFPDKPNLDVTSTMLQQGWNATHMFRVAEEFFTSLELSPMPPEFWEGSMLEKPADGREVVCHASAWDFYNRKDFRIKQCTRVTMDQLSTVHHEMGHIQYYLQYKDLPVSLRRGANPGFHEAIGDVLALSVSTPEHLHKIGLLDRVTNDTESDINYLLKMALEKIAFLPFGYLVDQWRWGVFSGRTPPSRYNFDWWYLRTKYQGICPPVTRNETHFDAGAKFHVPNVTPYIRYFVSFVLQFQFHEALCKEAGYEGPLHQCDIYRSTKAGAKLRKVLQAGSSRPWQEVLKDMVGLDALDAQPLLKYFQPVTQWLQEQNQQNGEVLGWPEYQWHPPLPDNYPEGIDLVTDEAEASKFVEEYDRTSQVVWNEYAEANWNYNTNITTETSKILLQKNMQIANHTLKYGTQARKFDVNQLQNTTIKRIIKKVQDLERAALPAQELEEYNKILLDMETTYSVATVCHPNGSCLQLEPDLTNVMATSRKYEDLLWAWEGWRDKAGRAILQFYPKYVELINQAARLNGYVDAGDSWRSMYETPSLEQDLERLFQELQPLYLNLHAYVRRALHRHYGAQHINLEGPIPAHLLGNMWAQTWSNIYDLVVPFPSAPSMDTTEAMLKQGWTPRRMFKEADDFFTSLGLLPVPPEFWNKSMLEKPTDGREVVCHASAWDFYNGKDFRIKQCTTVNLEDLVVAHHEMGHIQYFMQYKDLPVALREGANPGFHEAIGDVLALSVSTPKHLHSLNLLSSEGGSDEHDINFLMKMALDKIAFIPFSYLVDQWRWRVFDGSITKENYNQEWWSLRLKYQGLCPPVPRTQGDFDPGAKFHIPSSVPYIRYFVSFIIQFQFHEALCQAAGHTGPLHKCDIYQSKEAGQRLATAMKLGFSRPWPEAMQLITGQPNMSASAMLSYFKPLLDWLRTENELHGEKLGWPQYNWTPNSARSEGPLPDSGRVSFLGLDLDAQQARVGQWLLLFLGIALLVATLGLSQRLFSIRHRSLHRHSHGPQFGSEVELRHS
Sequence of Endothelin receptor type B (P24530 whole entry): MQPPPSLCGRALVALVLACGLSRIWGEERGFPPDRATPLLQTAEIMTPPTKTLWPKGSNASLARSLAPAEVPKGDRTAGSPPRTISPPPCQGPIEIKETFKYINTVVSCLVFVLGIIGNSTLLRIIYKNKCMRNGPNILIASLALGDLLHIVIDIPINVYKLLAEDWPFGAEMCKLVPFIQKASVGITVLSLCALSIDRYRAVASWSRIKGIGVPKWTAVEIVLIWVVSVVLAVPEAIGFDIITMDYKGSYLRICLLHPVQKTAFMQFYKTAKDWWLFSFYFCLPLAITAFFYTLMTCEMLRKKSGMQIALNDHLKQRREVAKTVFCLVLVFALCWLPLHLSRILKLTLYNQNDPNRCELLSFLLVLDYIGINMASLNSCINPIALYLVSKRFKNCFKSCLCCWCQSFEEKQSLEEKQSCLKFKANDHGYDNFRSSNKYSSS
Sequence of Histamine H3 receptor (Q9Y5N1 whole entry): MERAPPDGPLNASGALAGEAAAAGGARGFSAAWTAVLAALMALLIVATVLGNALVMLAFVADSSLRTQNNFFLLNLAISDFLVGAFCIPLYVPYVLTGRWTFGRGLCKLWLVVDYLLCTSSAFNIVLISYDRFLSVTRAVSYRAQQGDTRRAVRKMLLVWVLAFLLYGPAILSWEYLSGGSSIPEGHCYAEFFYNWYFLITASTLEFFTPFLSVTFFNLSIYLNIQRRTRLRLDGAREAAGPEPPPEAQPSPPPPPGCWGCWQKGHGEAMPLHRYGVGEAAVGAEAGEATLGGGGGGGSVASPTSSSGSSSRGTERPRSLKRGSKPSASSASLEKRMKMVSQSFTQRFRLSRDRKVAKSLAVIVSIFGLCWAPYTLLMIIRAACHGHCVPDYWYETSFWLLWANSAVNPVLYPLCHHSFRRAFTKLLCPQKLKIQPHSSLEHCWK
Sequence of Neprilysin (P08473 whole entry): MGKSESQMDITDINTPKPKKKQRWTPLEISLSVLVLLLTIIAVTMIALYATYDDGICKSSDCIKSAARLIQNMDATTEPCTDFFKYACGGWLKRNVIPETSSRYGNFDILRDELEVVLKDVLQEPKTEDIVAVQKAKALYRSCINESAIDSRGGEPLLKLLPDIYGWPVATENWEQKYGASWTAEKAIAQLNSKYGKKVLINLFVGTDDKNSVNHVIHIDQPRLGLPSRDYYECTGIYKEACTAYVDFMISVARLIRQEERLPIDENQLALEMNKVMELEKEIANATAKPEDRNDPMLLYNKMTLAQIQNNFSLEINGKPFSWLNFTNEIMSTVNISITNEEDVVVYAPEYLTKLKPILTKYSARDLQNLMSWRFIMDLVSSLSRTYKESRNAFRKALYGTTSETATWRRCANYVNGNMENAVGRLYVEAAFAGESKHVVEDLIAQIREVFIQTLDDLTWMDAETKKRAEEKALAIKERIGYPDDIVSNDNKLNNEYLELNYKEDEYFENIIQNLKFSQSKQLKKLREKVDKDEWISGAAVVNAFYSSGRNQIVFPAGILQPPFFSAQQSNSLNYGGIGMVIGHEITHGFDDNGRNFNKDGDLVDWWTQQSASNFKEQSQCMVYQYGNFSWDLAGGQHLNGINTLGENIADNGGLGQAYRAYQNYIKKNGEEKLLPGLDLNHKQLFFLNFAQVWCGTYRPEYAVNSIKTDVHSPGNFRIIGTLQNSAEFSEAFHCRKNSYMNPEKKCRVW
Sequence of Histamine H1 receptor (P35367 whole entry): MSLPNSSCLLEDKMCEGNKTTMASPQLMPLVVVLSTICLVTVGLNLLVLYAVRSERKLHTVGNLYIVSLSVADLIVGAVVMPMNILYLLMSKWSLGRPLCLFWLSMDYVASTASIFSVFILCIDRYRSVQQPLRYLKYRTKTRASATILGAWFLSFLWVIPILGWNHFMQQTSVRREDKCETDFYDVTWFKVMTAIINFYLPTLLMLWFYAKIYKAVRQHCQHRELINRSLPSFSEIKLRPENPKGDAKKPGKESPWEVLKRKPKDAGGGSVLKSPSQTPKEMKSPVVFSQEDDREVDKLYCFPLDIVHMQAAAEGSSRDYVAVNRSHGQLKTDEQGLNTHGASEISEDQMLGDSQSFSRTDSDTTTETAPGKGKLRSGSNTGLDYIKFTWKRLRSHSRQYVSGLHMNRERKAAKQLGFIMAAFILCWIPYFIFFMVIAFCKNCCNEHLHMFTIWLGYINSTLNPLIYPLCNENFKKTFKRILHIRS
Sequence of Endothelin-converting enzyme 1 (P42892 whole entry): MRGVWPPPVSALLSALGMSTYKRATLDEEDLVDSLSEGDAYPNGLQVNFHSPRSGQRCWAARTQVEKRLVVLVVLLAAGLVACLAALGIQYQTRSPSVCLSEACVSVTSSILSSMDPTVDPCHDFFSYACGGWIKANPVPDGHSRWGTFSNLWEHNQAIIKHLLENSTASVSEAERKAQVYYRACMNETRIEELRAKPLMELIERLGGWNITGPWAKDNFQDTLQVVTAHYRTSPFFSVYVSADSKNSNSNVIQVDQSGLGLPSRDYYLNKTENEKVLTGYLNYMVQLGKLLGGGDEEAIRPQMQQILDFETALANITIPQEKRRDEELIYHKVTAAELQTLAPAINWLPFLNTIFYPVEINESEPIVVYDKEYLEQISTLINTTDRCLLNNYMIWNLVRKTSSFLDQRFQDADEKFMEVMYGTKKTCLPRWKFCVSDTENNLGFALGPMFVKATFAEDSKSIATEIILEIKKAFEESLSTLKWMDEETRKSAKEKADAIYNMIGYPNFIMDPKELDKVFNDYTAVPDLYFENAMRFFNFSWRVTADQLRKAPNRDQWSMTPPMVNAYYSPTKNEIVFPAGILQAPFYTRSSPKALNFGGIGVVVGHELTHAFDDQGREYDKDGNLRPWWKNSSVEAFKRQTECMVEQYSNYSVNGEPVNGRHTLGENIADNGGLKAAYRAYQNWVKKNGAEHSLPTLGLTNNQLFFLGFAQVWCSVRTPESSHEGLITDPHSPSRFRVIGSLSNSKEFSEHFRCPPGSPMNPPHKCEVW

Consider `CN(CCCCc1c[nH]cn1)CCC(c1ccc(Cl)cc1)c1ccccn1` (centres undefined), for which the Ki came to 15 nM in assay [1] and 7 nM in [2].

As to `CCCc1cc(Cn2c(CC)nc3c(C)cc(C)nc32)ccc1OC(C(=O)NS(=O)(=O)c1ccc(C(C)C)cc1)c1ccc2c(c1)OCC2` (centres undefined), the IC50 in [3] was determined as 24 nM; in assay [4], 60 nM; in assay [5] it was 13 nM; in [6], 32 nM.

`COc1ccc2c(c1)CC[C@H]2[C@@H](CS)C(=O)N[C@@H](Cc1c[nH]c2ccccc12)C(=O)O`: the Ki in assay [7] came to 1.3 nM; in [8], 24 nM; in [9], 10 nM.

Usually Ki stands for the dissociation constant of the complex between target and ligand, obtained from inhibition or displacement. A word on the IC50: it is the concentration that inhibits the measured activity by half. Lower therefore signals greater potency in that assay.

The values above are taken from ChEMBL document CHEMBL1140446, “Designed multiple ligands. An emerging drug discovery paradigm” (J Med Chem, 2005).
